From doi:10.1101/2025.08.22.671821v1, “Cross-regulation of (p)ppGpp and c-di-GMP pathways controls a cell-cycle transition” (biorxiv, 2025)

How the values were obtained:
PleD (PleDCC) [1] = target: T1, PleD (PleDCC) (Caulobacter vibrioides, UniProt B8GZM2); experiment: crystal structure ([…] and […] Å); assay type: binding; conditions: I-site (inhibitory site), two molecules per monomer; with ppGpp (9G85) or pppGpp (9G86)
T1 construct: full-length D1-D2-DGC, His-tagged, pET11b-pleD, E. coli BL21(DE3), Ni-NTA and SEC; unphosphorylated
T1 sequence (B8GZM2 1-454): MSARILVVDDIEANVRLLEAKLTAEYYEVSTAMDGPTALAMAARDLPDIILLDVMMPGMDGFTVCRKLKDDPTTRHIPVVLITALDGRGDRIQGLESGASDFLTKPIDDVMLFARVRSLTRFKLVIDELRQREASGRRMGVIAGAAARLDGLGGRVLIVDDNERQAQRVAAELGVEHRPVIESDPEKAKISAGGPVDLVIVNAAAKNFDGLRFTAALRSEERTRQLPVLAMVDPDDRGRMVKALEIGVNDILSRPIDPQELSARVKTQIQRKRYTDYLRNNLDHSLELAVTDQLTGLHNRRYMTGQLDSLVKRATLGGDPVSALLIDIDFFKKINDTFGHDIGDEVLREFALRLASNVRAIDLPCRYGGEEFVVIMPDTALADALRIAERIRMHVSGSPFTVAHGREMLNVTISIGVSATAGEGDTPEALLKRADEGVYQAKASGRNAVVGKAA

PleD (PleDCC) [2] = target: T1, PleD (PleDCC); experiment: c-di-GMP synthesis, C18-HPLC; assay type: biochemical
PleDAT [3] = target: T2, PleDAT (Agrobacterium fabrum, UniProt A9CJ98); experiment: c-di-GMP synthesis, C18-HPLC; assay type: biochemical; conditions: 100 µM GTP, 40 µM protein, 10 mM MgCl2, pH 7.8, 25 °C, 2 h
T2 construct: gene pleD; His-tagged, pET28a-pleDAT, E. coli BL21(DE3), Ni-NTA and SEC

PleD (PleDCC) [4] = target: T1, PleD (PleDCC); experiment: ITC; assay type: binding
PleDAT [5] = target: T2, PleDAT; experiment: nanoDSF; assay type: binding; conditions: 100 µM protein, 1 mM ligand, pH 7.8, 5 mM MgCl2
PleDSM [6] = target: T3, PleDSM (Sinorhizobium meliloti, UniProt Q92QM5); experiment: c-di-GMP synthesis, C18-HPLC; assay type: biochemical; conditions: 100 µM GTP, 40 µM protein, 10 mM MgCl2, pH 7.8, 25 °C, 2 h
T3 construct: gene pleD; His-tagged, pET28a-pleDSM, E. coli BL21(DE3), Ni-NTA and SEC
T3 sequence (Q92QM5 1-455): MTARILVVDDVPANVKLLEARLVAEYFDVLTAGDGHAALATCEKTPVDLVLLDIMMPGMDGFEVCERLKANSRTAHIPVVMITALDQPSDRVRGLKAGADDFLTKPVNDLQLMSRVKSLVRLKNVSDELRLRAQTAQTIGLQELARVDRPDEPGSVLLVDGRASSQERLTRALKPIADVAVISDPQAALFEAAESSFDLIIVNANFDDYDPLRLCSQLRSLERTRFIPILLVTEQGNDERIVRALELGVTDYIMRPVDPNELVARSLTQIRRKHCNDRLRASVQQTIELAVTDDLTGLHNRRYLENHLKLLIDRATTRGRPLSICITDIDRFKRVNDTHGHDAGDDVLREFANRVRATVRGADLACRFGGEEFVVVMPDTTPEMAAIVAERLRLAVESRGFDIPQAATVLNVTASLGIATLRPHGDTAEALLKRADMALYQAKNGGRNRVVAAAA

PleDSM [7] = target: T3, PleDSM; experiment: c-di-GMP synthesis, C18-HPLC; assay type: biochemical; conditions: 100 µM GTP, 40 µM protein, 10 mM MgCl2, pH 7.8, 25 °C
WspR [8] = target: T4, WspR (Pseudomonas aeruginosa, UniProt Q9HXT9); experiment: c-di-GMP synthesis, C18-HPLC; assay type: biochemical; conditions: 100 µM GTP, 40 µM protein, 10 mM MgCl2, pH 7.8, 25 °C
T4 construct: His-tagged, pET28a-wspR, E. coli BL21(DE3), Ni-NTA and SEC

WspR [9] = target: T4, WspR; experiment: c-di-GMP synthesis, C18-HPLC; assay type: biochemical

T2 sequence (A9CJ98 entry or part of it): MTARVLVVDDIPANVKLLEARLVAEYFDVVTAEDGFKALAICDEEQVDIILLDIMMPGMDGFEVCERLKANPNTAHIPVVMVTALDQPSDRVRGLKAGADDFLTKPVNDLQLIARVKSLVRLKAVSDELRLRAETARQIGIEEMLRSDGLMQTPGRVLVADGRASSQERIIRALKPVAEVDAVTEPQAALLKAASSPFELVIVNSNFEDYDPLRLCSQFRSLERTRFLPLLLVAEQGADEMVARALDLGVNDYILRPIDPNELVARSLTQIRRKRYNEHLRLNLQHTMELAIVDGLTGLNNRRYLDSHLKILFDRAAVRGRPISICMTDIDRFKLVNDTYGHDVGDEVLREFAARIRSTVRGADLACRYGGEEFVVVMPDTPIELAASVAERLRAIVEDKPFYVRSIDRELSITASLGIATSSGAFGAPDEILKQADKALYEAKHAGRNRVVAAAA
T4 sequence (Q9HXT9 entry or part of it): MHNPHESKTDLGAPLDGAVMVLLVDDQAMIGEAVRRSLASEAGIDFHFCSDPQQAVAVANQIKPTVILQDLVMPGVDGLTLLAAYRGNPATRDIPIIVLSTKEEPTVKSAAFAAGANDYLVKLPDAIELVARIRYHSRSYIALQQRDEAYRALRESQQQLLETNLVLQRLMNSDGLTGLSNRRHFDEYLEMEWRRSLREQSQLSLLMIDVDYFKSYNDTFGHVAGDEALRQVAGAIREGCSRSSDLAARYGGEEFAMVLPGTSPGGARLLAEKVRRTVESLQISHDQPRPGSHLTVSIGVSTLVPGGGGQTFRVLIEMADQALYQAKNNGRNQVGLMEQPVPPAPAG

Nc1nc2c(ncn2[C@@H]2O[C@@H]3COP(=O)(O)O[C@H]4[C@@H](O)[C@H](n5cnc6c(=O)[nH]c(N)nc65)O[C@@H]4COP(=O)(O)O[C@H]3[C@H]2O)c(=O)[nH]1 [c-di-GMP]
crystal structure (2.9 and 3 Å) (PleD (PleDCC) [1]): each monomer of the (p)ppGpp-PleD structures is bound by two cyclic di-GMP molecules

Nc1nc2c(ncn2[C@@H]2O[C@H](COP(=O)(O)OP(=O)(O)O)[C@@H](OP(=O)(O)OP(=O)(O)O)[C@H]2O)c(=O)[nH]1 [ppGpp]
inhibition at 500 µM (PleD (PleDCC) [2]): > 50% | % inhibition at 500 μM (PleDAT [3]): ppGpp and pppGpp strongly inhibited c-di-GMP production | Kd (PleD (PleDCC) [4]): 45.4 ± 22.3 µM | ΔTm (PleDAT [5]): NanoDSF assays further confirmed PleDAT binding to (p)ppGpp | % inhibition at 500 μM (PleDSM [6]): ppGpp and pppGpp strongly inhibited c-di-GMP production

Nc1nc2c(ncn2[C@@H]2O[C@H](COP(=O)(O)OP(=O)(O)OP(=O)(O)O)[C@@H](O)[C@H]2O)c(=O)[nH]1 [GTP]
c-di-GMP synthesis, C18-HPLC (PleDSM [7]): c-di-GMP production by different diguanylate cyclases (DGCs) | c-di-GMP synthesis, C18-HPLC (WspR [8]): c-di-GMP production by different diguanylate cyclases (DGCs)

Nc1nc2c(ncn2[C@@H]2O[C@H](COP(=O)(O)OP(=O)(O)OP(=O)(O)O)[C@@H](OP(=O)(O)OP(=O)(O)O)[C@H]2O)c(=O)[nH]1 [pppGpp]
inhibition at 500 µM (PleD (PleDCC) [2]): > 90% | % inhibition at 500 μM (PleDAT [3]): ppGpp and pppGpp strongly inhibited c-di-GMP production, with pppGpp showing greater potency | inhibition at 500 µM (WspR [9]): > 50% | Kd (PleD (PleDCC) [4]): 9.31 ± 1.16 µM | ΔTm (PleDAT [5]): NanoDSF assays further confirmed PleDAT binding to (p)ppGpp | % inhibition at 500 μM (PleDSM [6]): ppGpp and pppGpp strongly inhibited c-di-GMP production, with pppGpp showing greater potency

Nc1nc2c(ncn2[C@@H]2O[C@H](COP(=O)(O)CP(=O)(O)OP(=O)(O)O)[C@@H](O)[C@H]2O)c(=O)[nH]1 [GpCpp]
Kd (PleD (PleDCC) [4]): 6.01 ± 1.52 µM
